The text below walks through data of PMC5218480 (PLoS ONE, 2017).

The test deals with MV-4-11 cells. Nature of the test: Gene expression microarray analysis (Affymetrix PrimeView) and GSEA. Format: cell-based, human. As to conditions: gene FGFR1OP, FGFR1 oncogene partner; Azacitidine 1 mM; LIST F.

Turning to `Nc1ncn([C@@H]2O[C@H](CO)[C@@H](O)[C@H]2O)c(=O)n1` [azacitidine], the “RFU, FGFR1OP (ProbeSet 11751329_s_at)” value worked out at 410.33 RFU.
